Experimental findings from patent publication US10844044B2 (Vanderbilt University, priority 2018, dated 2020) are described below.

In assay [1] the test system is MV4:11 human cancer cell lines. The assay can be described thus: Anti-proliferative activity, CellTiter-Glo viability assay, 7 day protocol. Type of assay: cell-based. Particulars: MV4:11 cells, 7 day incubation, read-out: GI50 on cellular proliferation of MV4:11 human cancer cell lines. Put shortly: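 Luminescent CellTiter-Glo readout after 7-day compound exposure of MV4:11 cells plated at 3600 cells/ml (final DMSO 0.1%). GI50 derived from three biological × three technical replicates, reported as mean ± S.E.M.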
On the technique in general: In ATP-based viability assays light output follows the ATP content of the culture.

In another assay the target is WDR5 (Homo sapiens (Human), UniProt P61964). Nature of the assay: TR-FRET binding assay (displacement of 10mer-Thr-FAM probe from WDR5). (TR-FRET usually uses a lanthanide donor and a delayed reading to cut background.)
Where [2] appears, read: read-out: Ki for Inhibition of WDR5 by TR-FRET assay, TR-FRET, 10mer-Thr-FAM probe, WDR5-His tag 2 nM, pH 7.0.

Like-named read-outs stand apart in the source and are kept apart here. Bounds are passed on as bounds.

As a reminder, the Ki is a dissociation constant, usually derived from enzyme kinetics or from competition with a known ligand. For the compound `Cn1cc(-c2cc(Cn3ccn(C)c3=N)cc(C(=O)N[C@H](c3ccc(Cl)c(Cl)c3)C3CC3)c2)c(C(F)(F)F)n1` [Example 157, (S)—N-(Cyclopropyl(3,4-dichlorophenyl)methyl)-3-((2-imino-3-methyl-2,3-dihydro-1H-imidazol-1-yl)methyl)-5-(1-methyl-3-(trifluoromethyl)-1H-pyrazol-4-yl)benzamide], the GI50 in assay [1] was 100 nM. In addition, the Ki on WDR5 (setting [2]) was less than 0.1 nM.
`Cc1cc([C@@H](NC(=O)c2cc(Cn3ccn(C4CC4)c3=N)cc(-c3ccc(F)cc3C(F)F)c2)C2CC2)ccc1F` [Example 158, (S)—N-(Cyclopropyl(4-fluoro-3-methylphenyl)methyl)-5-((3-cyclopropyl-2-imino-2,3-dihydro-1H-imidazol-1-yl)methyl)-2′-(difluoromethyl)-4′-fluoro-[1,1′-biphenyl]-3-carboxamide]: the GI50 in assay [1] (Homo sapiens, MV4-11, 168 h) was determined as 170 nM. On WDR5 (setting [2]), the Ki was less than 0.1 nM.
With `Cn1cc(-c2cc(Cn3ccn(C4CC4)c3=N)cc(C(=O)N[C@H](c3ccc(Cl)c(Cl)c3)C3CC3)c2)c(C(F)(F)F)n1` [Example 159, (S)—N-(cyclopropyl(3,4-dichlorophenyl)methyl)-3-((3-cyclopropyl-2-imino-2,3-dihydro-1H-imidazol-1-yl)methyl)-5-(1-methyl-3-(trifluoromethyl)-1H-pyrazol-4-yl)benzamide], the GI50 in assay [1] (Homo sapiens, MV4-11, 168 h) was determined as 190 nM. In addition, the inhibitory constant (Ki) at WDR5 (setting [2]) was less than 0.1 nM.
Turning to `CCn1cc(-c2cc(Cn3ccn(C4CC4)c3=N)cc(C(=O)N[C@H](c3ccc(F)c(C)c3)C3CC3)c2)c(C(F)(F)F)n1` [Example 160, (S)—N-(Cyclopropyl(4-fluoro-3-methylphenyl)methyl)-3-((3-cyclopropyl-2-imino-2,3-dihydro-1H-imidazol-1-yl)methyl)-5-(1-ethyl-3-(trifluoromethyl)-1H-pyrazol-4-yl)benzamide], the GI50 in assay [1] (Homo sapiens, MV4-11, 168 h) was less than 100 nM. Further, at WDR5 (setting [2]), the inhibition constant Ki was less than 0.1 nM.
In the case of `CCn1cc(-c2cc(Cn3ccn(C)c3=N)cc(C(=O)N[C@H](c3ccc(Cl)c(Cl)c3)C3CC3)c2)c(C(F)(F)F)n1` [Example 161, (S)—N-(Cyclopropyl(3,4-dichlorophenyl)methyl)-3-(1-ethyl-3-(trifluoromethyl)-1H-pyrazol-4-yl)-5-((2-imino-3-methyl-2,3-dihydro-1H-imidazol-1-yl)methyl)benzamide], the GI50 in assay [1] (Homo sapiens, MV4-11, 168 h) is less than 100 nM. Also, at WDR5 (read-out: Ki for Inhibition of WDR5 by TR-FRET assay), the Ki was less than 0.1 nM.
With `CCn1cc(-c2cc(Cn3ccn(C4CC4)c3=N)cc(C(=O)N[C@H](c3ccc(Cl)c(Cl)c3)C3CC3)c2)c(C(F)(F)F)n1` [Example 162, (S)—N-(Cyclopropyl(3,4-dichlorophenyl)methyl)-3-((3-cyclopropyl-2-imino-2,3-dihydro-1H-imidazol-1-yl)methyl)-5-(1-ethyl-3-(trifluoromethyl)-1H-pyrazol-4-yl)benzamide], in assay [1] (Homo sapiens, MV4-11, 168 h), the GI50 came out at 130 nM. The Ki at WDR5 (setting [2]) is less than 0.1 nM.
Consider `Cc1cc([C@@H](NC(=O)c2cc(Cn3ccn(C)c3=N)cc(C3CCC3)c2)C2CC2)ccc1F` [Example 166, (S)-3-Cyclobutyl-N-(cyclopropyl(4-fluoro-3-methylphenyl)methyl)-5-((2-imino-3-methyl-2,3-dihydro-1H-imidazol-1-yl)methyl)benzamide], for which the GI50 in assay [1] (Homo sapiens, MV4-11, 168 h) worked out at 360 nM. Moreover, on WDR5 (setting [2]), the inhibitory constant (Ki) is less than 0.1 nM.
For `Cc1cc([C@H](C)NC(=O)c2cc(Cn3ccn(C)c3=N)cc(-c3ccc(F)cc3C(F)(F)F)c2F)ccc1F` [Example 172, (S)-2,4′-Difluoro-N-(1-(4-fluoro-3-methylphenyl)ethyl)-5-((2-imino-3-methyl-2,3-dihydro-1H-imidazol-1-yl)methyl)-2′-(trifluoromethyl)-[1,1′-biphenyl]-3-carboxamide], the GI50 in assay [1] (Homo sapiens, MV4-11, 168 h) is 160 nM. The compound further displayed an inhibitory constant (Ki) at WDR5 of less than 0.1 nM.
In the case of `Cc1cc([C@@H](NC(=O)c2cc(Cn3ccn(C)c3=N)cc(-c3ccc(F)cc3Cl)c2)C2CC2)ncc1F` [Example 174, (S)-2′-Chloro-N-(cyclopropyl(5-fluoro-4-methylpyridin-2-yl)methyl)-4′-fluoro-5-((2-imino-3-methyl-2,3-dihydro-1H-imidazol-1-yl)methyl)-[1,1′-biphenyl]-3-carboxamide], in assay [1] (Homo sapiens, MV4-11, 168 h), the GI50 is less than 100 nM. For the same compound, on WDR5 (setting [2]), the Ki is less than 0.1 nM.
The corresponding values for `Cc1cc([C@@H](NC(=O)c2cc(Cn3ccn(C)c3=N)cc(OC(F)(F)F)c2)C2CC2)ccc1F` [Example 179, (S)—N-(Cyclopropyl(4=fluoro-3-methylphenyl)methyl)-3-((2-imino-3-methyl-2,3-dihydro-1H-imidazol-1-yl)methyl)-5-(trifluoromethoxy)benzamide] are 230 nM and less than 0.1 nM.
Regarding `Cc1cc([C@@H](NC(=O)c2cc(Cn3ccn(C)c3=N)cc(-c3ccc(F)cc3C#N)c2)C2CC2)ccc1F` [Example 185, (S)-2′-Cyano-N-(cyclopropyl(4-fluoro-3-methylphenyl)methyl)-4′-fluoro-5-((2-imino-3-methyl-2,3-dihydro-1H-imidazol-1-yl)methyl)-[1,1′-biphenyl]-3-carboxamide], the GI50 in assay [1] (Homo sapiens, MV4-11, 168 h) came out at 610 nM. Further, at WDR5 (setting [2]), the Ki was less than 0.1 nM.
Regarding `Cn1ccn(Cc2cc(C(=O)NC3(c4cccc(Br)c4)CCC3)c(F)c(-c3ccc(F)cc3C(F)(F)F)c2)c1=N` [Example 186, N-(1-(3-Bromophenyl)cyclobutyl)-2,4′-difluoro-5-((2-imino-3-methyl-2,3-dihydro-1H-imidazol-1-yl)methyl)-2′-(trifluoromethyl)-[1,1′-biphenyl]-3-carboxamide], the GI50 in assay [1] (Homo sapiens, MV4-11, 168 h) worked out at 580 nM. Further, on WDR5 (setting [2]), the Ki was less than 0.1 nM.
Consider `Cn1ccn(Cc2cc(C(=O)N[C@H](c3ccc(Cl)c(Cl)c3)C3CC3)cc(-c3ncc(F)cc3C(F)(F)F)c2)c1=N` [Example 187], for which, in assay [1] (Homo sapiens, MV4-11, 168 h), the GI50 was 440 nM. For the same compound, the inhibition constant Ki at WDR5 (setting [2]) was less than 0.1 nM.
For the compound `Cc1cc([C@@H](NC(=O)c2cc(Cn3ccn(C)c3=N)cc(-c3ccc(F)cc3C(F)(F)F)c2)C2CC2)ccc1F` [Example 188, (S)—N-(Cyclopropyl(4-fluoro-3-methylphenyl)methyl)-4′-fluoro-5-((2-imino-3-methyl-2,3-dihydro-1H-imidazol-1-yl)methyl)-2′-(trifluoromethyl)-[1,1′-biphenyl]3-carboxamide], the GI50 in assay [1] (Homo sapiens, MV4-11, 168 h) is less than 100 nM. On WDR5, this compound showed an inhibitory constant (Ki) of less than 0.1 nM.
`Cn1ccn(Cc2cc(C(=O)N[C@H](c3ccc(F)c(F)c3)C3CC3)cc(-c3cccnc3C(F)(F)F)c2)c1=N` [Example 189, (S)—N-(Cyclopropyl(3,4-difluorophenyl)methyl)-3-((2-imino-3-methyl-2,3-dihydro-1H-imidazol-1-yl)methyl)-5-(2-(trifluoromethyl)pyridin-3-yl)benzamide]: the GI50 in assay [1] (Homo sapiens, MV4-11, 168 h) was found to be 120 nM. Moreover, the inhibition constant (Ki) on WDR5 (setting [2]) is less than 0.1 nM.
As to `CCn1cc(-c2cc(Cn3ccn(C4CC4)c3=N)cc(C(=O)N[C@H](c3ccc(F)c(F)c3)C3CC3)c2)c(C(F)(F)F)n1` [Example 190, (S)—N-(Cyclopropyl(3,4-difluorophenyl)methyl)-3-((3-cyclopropyl-2-imino-2,3-dihydro-1H-imidazol-1-yl)methyl)-5-(1-ethyl-3-(trifluoromethyl)-1H-pyrazol-4-yl)benzamide], the GI50 in assay [1] (Homo sapiens, MV4-11, 168 h) is 190 nM. Also, the inhibitory constant (Ki) on WDR5 (setting [2]) came to 0.11 nM.
The corresponding values for `CCn1cc(-c2cc(Cn3ccn(C)c3=N)cc(C(=O)N[C@H](c3ccc(F)c(F)c3)C3CC3)c2)c(C(F)(F)F)n1` [Example 191] are 80 nM and less than 0.1 nM.
The corresponding values for `C=C(c1cc(Cn2ccn(C)c2=N)cc(C(=O)N[C@H](c2ccc(F)c(C)c2)C2CC2)c1)C(F)(F)F` [Example 192, (S)—N-(cyclopropyl(4-fluoro-3-methylphenyl)methyl)-3-((2-imino-3-methyl-2,3-dihydro-1H-imidazol-1-yl)methyl)-5-(3,3,3-trifluoroprop-1-en-2-yl)benzamide] are 500 nM and less than 0.1 nM.
Take `Cc1cc([C@@H](NC(=O)c2cc(Cn3ccn(C)c3=N)cc(-c3cn(C(C)C)nc3C(F)(F)F)c2)C2CC2)ccc1F` [Example 193, (S)—N-(Cyclopropyl(4-fluoro-3-methylphenyl)methyl)-3-((2-imino-3-methyl-2,3-dihydro-1H-imidazol-1-yl)methyl)-5-(1-isopropyl-3-(trifluoromethyl)-1H-pyrazol-4-yl)benzamide]: in assay [1] (Homo sapiens, MV4-11, 168 h), the GI50 was less than 100 nM. The inhibitory constant (Ki) at WDR5 (setting [2]) was less than 0.1 nM.
For `Cc1cc([C@@H](NC(=O)c2cc(Cn3ccn(C4CC4)c3=N)cc(-c3cn(C(C)C)nc3C(F)(F)F)c2)C2CC2)ccc1F` [Example 194, (S)—N-(Cyclopropyl(4-fluoro-3-methylphenyl)methyl)-3-((3-cyclopropyl-2-imino-2,3-dihydro-1H-imidazol-1-yl)methyl)-5-(1-isopropyl-3-(trifluoromethyl)-1H-pyrazol-4-yl)benzamide], in assay [1] (Homo sapiens, MV4-11, 168 h), the GI50 is less than 100 nM. Also, the Ki on WDR5 (setting [2]) is less than 0.1 nM.
Taken in the same sequence, the figures for `Cc1cc([C@@H](NC(=O)c2cc(Cn3ccn(C)c3=N)cc(C(C)C(F)(F)F)c2)C2CC2)ccc1F` (stereo partly drawn) [Example 195, N—((S)-Cyclopropyl(4-fluoro-3-methylphenyl)methyl)-3-((2-imino-3-methyl-2,3-dihydro-1H-imidazol-1-yl)methyl)-5-(1,1,1-trifluoropropan-2-yl)benzamide] were 940 nM and less than 0.1 nM.
Regarding `Cc1cc([C@@H](NC(=O)c2cc(Cn3ccn(C)c3=N)cc(-c3cc(C(F)(F)F)nn3C)c2)C2CC2)ccc1F` [Example 196, (S)—N-(Cyclopropyl(4-fluoro-3-methylphenyl)methyl)-3-((2-imino-3-methyl-2,3-dihydro-1H-imidazol-1-yl)methyl)-5-(1-methyl-3-(trifluoromethyl)-1H-pyrazol-5-yl)benzamide], in assay [1] (Homo sapiens, MV4-11, 168 h), the GI50 was less than 100 nM. In addition, on WDR5 (setting [2]), the Ki was less than 0.1 nM.
